# System: Vaccinia virus
# Experiment: Minimum inhibitory concentration required to reduce Vaccinia virus induced cytopathogenicity by 50%
# Type: functional
# Conditions: Orthopoxvirus vaccinia
row,Structure (SMILES),MIC
1,O=c1ccn([C@H]2S[C@@H](CO)[C@H](O)[C@H]2O)c(=O)[nH]1,400 µg/mL
2,O=c1ccn([C@@H]2S[C@@H](CO)[C@H](O)[C@H]2O)c(=O)[nH]1,400 µg/mL
3,Nc1ncnc2c1ncn2[C@@H]1S[C@@H](CO)[C@H](O)[C@H]1O,400 µg/mL
4,Nc1ncnc2c1ncn2[C@H]1S[C@@H](CO)[C@H](O)[C@H]1O,400 µg/mL
5,Nc1ccn(C2S[C@@H](CO)[C@H](O)[C@H]2O)c(=O)n1 (some centres not stated),400 µg/mL
6,Cc1cn([C@H]2S[C@@H](CO)[C@H](O)[C@H]2O)c(=O)[nH]c1=O,400 µg/mL
7,Cc1cn([C@@H]2S[C@@H](CO)[C@H](O)[C@H]2O)c(=O)[nH]c1=O,400 µg/mL

# From ChEMBL document CHEMBL1134025, “Thiosugars. Part 9: synthesis and biological evaluation of some 4'-thio-L-arabino nucleoside analogues” (2001)
